Values after ≈ are worked out from the molar mass of the structure shown.
Legend:
P. aeruginosa (G−) [1] = conditions: comparison values of known antibiotics; cited from earlier work
P. aeruginosa (G−) [2] = test: Minimum inhibitory concentration (MIC), P. aeruginosa; format: cell-based, Pseudomonas aeruginosa
S. agalactiae (G+) = test: Minimum inhibitory concentration (MIC), S. agalactiae; format: cell-based, Streptococcus agalactiae; conditions: Experiment 2, Table 3
Pa2 (G−) = test: Minimum inhibitory concentration (MIC), Pa2; conditions: Experiment 1, Table 2
B. subtilis (G+) = format: cell-based; conditions: Experiment 2, Table 3
E. coli (G−) = test: Minimum inhibitory concentration (MIC), E. coli; format: cell-based, Escherichia coli
[3] = Isothermal titration calorimetry: critical aggregation concentration and degree of ionization; format: physicochemical; conditions: 37° C.; for CAC: ITC, pure water
Description: Isothermal titration calorimetry (ITC) was used to determine the critical aggregation concentration (CAC) and the degree of ionization at 37° C. associated with aggregate formation for each amphiphile for the M-E series, as shown in Table 1.
A Nano ITC was used to measure the heat change associated with the deaggregation of amphiphiles via power compensation. A concentrated aqueous solution of amphiphile (>>CAC) was titrated into a thermally controlled sample cell, initially containing pure water, in a series of discrete injections. Isothermal titration calorimetry was used to determine the critical aggregation concentration (CAC).
CAC and ΔHagg were determined using a Nano-ITC (TA-Instruments). Prior to each experiment the sample cell was washed with dH2O (300 mL), ethanol (100 mL), dH2O (300 mL) and nanopure water (200 mL). Next, 950 μL of nanopure water was added to the sample cell. A concentrated aqueous solution (>>CAC) of amphiphile was prepared and equilibrated at 37° C. A 250 μL syringe was filled with the aqueous solution, and loaded into the Nano ITC. Multiple single injections in aliquots of 5 μL were injected into the sample cell with time intervals varying from 300 s to 1400 s. Samples were continuously stirred (300 rpm) throughout the titration. The Nano-Analyze program (TA-Instruments) was used to analyze the data. CAC and ΔHagg values reported are the average of two or more repeat experiments for each amphiphile.

B. anthracis (G+) = format: cell-based; conditions: Experiment 2, Table 3
Pa1 (G−) = test: Minimum inhibitory concentration (MIC), Pa1; conditions: Experiment 1, Table 2
E. faecalis (G+) = test: Minimum inhibitory concentration (MIC), E. faecalis; format: cell-based, Enterococcus faecalis; conditions: Experiment 2, Table 3
S. aureus (G+) = test: Minimum inhibitory concentration (MIC), S. aureus; format: cell-based, Staphylococcus aureus
[4] = test system: Pseudomonas aeruginosa biofilm; test: Crystal Violet Biofilm Disruption Assay; format: cell-based; conditions: for Max % disruption: over 250-2 μM
Description: A Crystal Violet Biofilm Disruption Assay was adapted from the techniques described in Bendouah, et al. 2006, Biofilm formation by Staphylococcus aureus and Pseudomonas aeruginosa is associated with an unfavorable evolution after surgery for chronic sinusitis and nasal polyposis, Otolaryngol. […] Bacteriol. 193 (20):5616-22. doi: 10.1128/JB.05534-11, which are incorporated by reference in their entirety. Applicants' adapted assay was performed as follows: • 1. Bacterial growth: […] (120 RPM in shaking incubator) for 24 hours • 2. Working stock: Overnight liquid culture diluted down to a bacterial concentration of approximately 5×10^6 CFU/mL in fresh LB • 3. Plate inoculation: Sterile 96-well microtiter plate inoculated with working stock: […] Plate covered with plastic cover, parafilm wrapped around edges; Incubate 24 hours at 37 degrees C. (stationary incubator) to establish biofilm • 4. Treatment: Row A and B: 100 μL sterile PBS (blank and negative control for disruption, respectively); […] Plate covered, wrapped with fresh parafilm, incubated at 37 degrees C. for 24 hours • 5. Staining and quantification: Plate rinsed twice with 1×PBS and allowed to dry; Wells stained with 100 μL 0.1% Crystal Violet dye for 15 minutes, excess rinsed off with gentle running dI water, allowed to dry; Stain dissolved in 100 μL 95% ethanol per well for 1 hour; Ethanol/CV solution transferred to fresh 96-well plate; Plate read at 570 nm on spectrophotometer plate reader; Values for rows C-H compared to row B (neg. control for disruption) to obtain % biofilm disruption at each concentration.

Gram-negative bacteria = test: MIC, summary for Gram-negative bacteria; format: cell-based; conditions: text summary over tested strains
Gram-positive bacteria = test: MIC, summary for Gram-positive bacteria; format: cell-based; conditions: text summary over tested strains

## CO/N=C(\C(=O)N[C@@H]1C(=O)N2C(C(=O)[O-])=C(C[N+]3(C)CCCC3)CS[C@H]12)c1csc(N)n1 [cefepime]
P. aeruginosa (G−) [1]
  MIC against P. aeruginosa: 12.5 µM (≈ 6.01 µg/mL)

## CCCCCCCCCCCCCCCC[N+](C)(C)Cc1cc(C[N+](C)(C)CCO)cc(C[N+](C)(C)CCCCCCCCCCCCCCCC)c1.[Br-].[Br-].[Br-] [Compound 5]
P. aeruginosa (G−) [2]; Experiment 1, Table 2
  MIC P. aeruginosa (G−): 125 µM
P. aeruginosa (G−) [2]; Experiment 2, Table 3
  MIC P. aeruginosa (G−): 125 µM
S. agalactiae (G+)
  MIC S. agalactiae (G+): >250 µM
Pa2 (G−)
  MIC Pa2 (G−): >250 µM
B. subtilis (G+)
  MIC B. subtilis (G+): >250 µM
E. coli (G−); Experiment 1, Table 2
  MIC E. coli (G−): 63 µM
E. coli (G−); Experiment 2, Table 3
  MIC E. coli (G−): 63 µM
[3]
  Degree of Ionization: 0.15
  CAC: 0.12 mM
B. anthracis (G+)
  MIC B. anthracis (G+): >250 µM
Pa1 (G−)
  MIC Pa1 (G−): >250 µM
E. faecalis (G+)
  MIC E. faecalis (G+): 63 µM
S. aureus (G+); Experiment 1, Table 2
  MIC S. aureus (G+): 63 µM
S. aureus (G+); Experiment 2, Table 3
  MIC S. aureus (G+): 63 µM

## NC[C@H]1O[C@H](O[C@H]2[C@H](O)[C@@H](O[C@H]3O[C@H](CO)[C@@H](O)[C@H](N)[C@H]3O)[C@H](N)C[C@@H]2N)[C@H](N)C[C@@H]1O [Tobramycin, reference compound]
[4]
  Min conc. >50% disruption: 31 µM
  Max % disruption: 61%
[4]; 2 μM
  % disruption average: 6.808%
  % disruption trial 1: 0%
  % disruption trial 2: 13.62%
[4]; 4 μM
  % disruption average: 27.66%
  % disruption trial 1: 0%
  % disruption trial 2: 55.3151%
[4]; 8 μM
  % disruption average: 32.13%
  % disruption trial 1: 15.46%
  % disruption trial 2: 48.79%
[4]; 16 μM
  % disruption average: 13.9806%
  % disruption trial 1: 0%
  % disruption trial 2: 27.9612%
[4]; 31 μM
  % disruption average: 61.0098%
  % disruption trial 1: 51.89%
  % disruption trial 2: 70.13%
[4]; 63 μM
  % disruption average: 60.79%
  % disruption trial 1: 53.5149%
  % disruption trial 2: 68.07%
[4]; 125 μM
  % disruption average: 43.07%
  % disruption trial 1: 34.88%
  % disruption trial 2: 51.26%
[4]; 250 μM
  % disruption average: 3.803%
  % disruption trial 1: 0%
  % disruption trial 2: 7.607%
P. aeruginosa (G−) [1]
  MIC against P. aeruginosa: 6.4 µM (≈ 2.99 µg/mL)

## CCCCCCCCCCCC[N+](C)(C)Cc1cc(C[N+](C)(C)CCO)cc(C[N+](C)(C)CCCCCCCCCCCC)c1.[Br-].[Br-].[Br-] [Compound 3]
[4]
  Min conc. >50% disruption: 63 µM
  Max % disruption: 68%
[4]; 2 μM
  % disruption average: 0%
  % disruption trial 1: 0%
  % disruption trial 2: 0%
[4]; 4 μM
  % disruption average: 5.12%
  % disruption trial 1: 1.759%
  % disruption trial 2: 8.481%
[4]; 8 μM
  % disruption average: 13.44%
  % disruption trial 1: 24.06%
  % disruption trial 2: 2.817%
[4]; 16 μM
  % disruption average: 30.79%
  % disruption trial 1: 47.34%
  % disruption trial 2: 14.23%
[4]; 31 μM
  % disruption average: 46.0133%
  % disruption trial 1: 61.1%
  % disruption trial 2: 30.93%
[4]; 63 μM
  % disruption average: 68.14%
  % disruption trial 1: 72.05%
  % disruption trial 2: 64.22%
[4]; 125 μM
  % disruption average: 65.66%
  % disruption trial 1: 65.04%
  % disruption trial 2: 66.29%
[4]; 250 μM
  % disruption average: 66.48%
  % disruption trial 1: 67.34%
  % disruption trial 2: 65.61%
P. aeruginosa (G−) [2]; Experiment 1, Table 2
  MIC P. aeruginosa (G−): 8 µM
P. aeruginosa (G−) [2]; Experiment 2, Table 3
  MIC P. aeruginosa (G−): 8 µM
S. agalactiae (G+)
  MIC S. agalactiae (G+): 2 µM
Pa2 (G−)
  MIC Pa2 (G−): 8 µM
Gram-negative bacteria
  MIC for Gram-negative bacteria: 4 to 8 µM
B. subtilis (G+)
  MIC B. subtilis (G+): 4 µM
E. coli (G−); Experiment 1, Table 2
  MIC E. coli (G−): 4 µM
E. coli (G−); Experiment 2, Table 3
  MIC E. coli (G−): 4 µM
[3]
  Degree of Ionization: 0.20
  CAC: 1.9 mM
B. anthracis (G+)
  MIC B. anthracis (G+): 2 µM
Pa1 (G−)
  MIC Pa1 (G−): 8 µM
E. faecalis (G+)
  MIC E. faecalis (G+): 2 µM
S. aureus (G+); Experiment 1, Table 2
  MIC S. aureus (G+): 4 µM
S. aureus (G+); Experiment 2, Table 3
  MIC S. aureus (G+): 4 µM
Gram-positive bacteria
  MIC for Gram-positive bacteria: 4 µM

## CCCCCCCC[N+](C)(C)Cc1cc(C[N+](C)(C)CCO)cc(C[N+](C)(C)CCCCCCCC)c1.[Br-].[Br-].[Br-] [Compound 1]
P. aeruginosa (G−) [2]; Experiment 2, Table 3
  MIC P. aeruginosa (G−): >250 µM
S. agalactiae (G+)
  MIC S. agalactiae (G+): 125 µM
B. subtilis (G+)
  MIC B. subtilis (G+): 250 µM
E. coli (G−); Experiment 2, Table 3
  MIC E. coli (G−): >250 µM
B. anthracis (G+)
  MIC B. anthracis (G+): 63 µM
E. faecalis (G+)
  MIC E. faecalis (G+): 63 µM
S. aureus (G+); Experiment 2, Table 3
  MIC S. aureus (G+): 250 µM

## CCCCCCCCCC[N+](C)(C)Cc1cc(C[N+](C)(C)CCO)cc(C[N+](C)(C)CCCCCCCCCC)c1.[Br-].[Br-].[Br-] [Compound 2]
P. aeruginosa (G−) [2]; Experiment 2, Table 3
  MIC P. aeruginosa (G−): 250 µM
S. agalactiae (G+)
  MIC S. agalactiae (G+): 4 µM
B. subtilis (G+)
  MIC B. subtilis (G+): 16 µM
E. coli (G−); Experiment 2, Table 3
  MIC E. coli (G−): 125 µM
[3]
  Degree of Ionization: 0.24
  CAC: 9.5 mM
B. anthracis (G+)
  MIC B. anthracis (G+): 4 µM
E. faecalis (G+)
  MIC E. faecalis (G+): 4 µM
S. aureus (G+); Experiment 2, Table 3
  MIC S. aureus (G+): 125 µM

## CCCCCCCCCCCCCC[N+](C)(C)Cc1cc(C[N+](C)(C)CCO)cc(C[N+](C)(C)CCCCCCCCCCCCCC)c1.[Br-].[Br-].[Br-] [Compound 4]
P. aeruginosa (G−) [2]; Experiment 1, Table 2
  MIC P. aeruginosa (G−): 125 µM
P. aeruginosa (G−) [2]; Experiment 2, Table 3
  MIC P. aeruginosa (G−): 125 µM
S. agalactiae (G+)
  MIC S. agalactiae (G+): 4 µM
Pa2 (G−)
  MIC Pa2 (G−): 250 µM
B. subtilis (G+)
  MIC B. subtilis (G+): 8 µM
E. coli (G−); Experiment 1, Table 2
  MIC E. coli (G−): 8 µM
E. coli (G−); Experiment 2, Table 3
  MIC E. coli (G−): 8 µM
[3]
  Degree of Ionization: 0.18
  CAC: 0.47 mM
B. anthracis (G+)
  MIC B. anthracis (G+): 8 µM
Pa1 (G−)
  MIC Pa1 (G−): 250 µM
E. faecalis (G+)
  MIC E. faecalis (G+): 4 µM
S. aureus (G+); Experiment 1, Table 2
  MIC S. aureus (G+): 8 µM
S. aureus (G+); Experiment 2, Table 3
  MIC S. aureus (G+): 8 µM
